Measured values taken from BindingDB's records for doi:10.1021/jm00057a008 (American Cyanamid, 1993).

Molecular target: Platelet-activating factor receptor (Oryctolagus cuniculus)
Assay: Inhibition of PAF-induced platelet aggregation in rabbit platelet rich plasma

**Q.** How did the IC50 turn out when `CCCCCCCCCCCCCCOc1ccc(C(=O)NCCc2cccc[n+]2C)cc1` [1-Methyl-2-[2-(4-tetradecyloxy-benzoylamino)-ethyl]-pyridinium; iodide] was run?
**A.** The IC50 was over 10 µM.

**Q.** `CCCCCCCCCCCCCCOc1ccc(C(=O)NCc2cccc[n+]2C)cc1` [1-Methyl-2-[(4-tetradecyloxy-benzoylamino)-methyl]-pyridinium; iodide] was tested. Which IC50 did it give?
**A.** The IC50 was over 10 µM.

**Q.** `CCCCCCCCCCCCCCOc1ccc(CC(=O)NCCc2cccc[n+]2C)cc1` [1-Methyl-2-{2-[2-(4-tetradecyloxy-phenyl)-acetylamino]-ethyl}-pyridinium; iodide] was tested. Which IC50 did it give?
**A.** The IC50 was 15 µM.

**Q.** For `CCCCCCCCCCCCCCOc1ccc(CC(=O)NCc2cccc[n+]2C)cc1` [1-Methyl-2-{[2-(4-tetradecyloxy-phenyl)-acetylamino]-methyl}-pyridinium; iodide], which IC50 is on record?
**A.** The IC50 was over 10 µM.

**Q.** How did the IC50 turn out when `CCCCCCCCCCCCCCOc1ccc(CNC(=O)c2cc[n+](C)cc2)cc1` [1-Methyl-4-(4-tetradecyloxy-benzylcarbamoyl)-pyridinium; iodide] was run?
**A.** Its IC50 is 60 µM.

**Q.** For `CCCCCCCCCCCCCCOc1ccccc1CN(Cc1cccc[n+]1C)C(C)=O` [2-{[Acetyl-(2-tetradecyloxy-benzyl)-amino]-methyl}-1-methyl-pyridinium; iodide], which IC50 is on record?
**A.** Its IC50 is 43 µM.

**Q.** For `CCCCCCCOc1ccc(C(=O)N(Cc2cccc[n+]2C)C(C)=O)cc1OCCCCCCC` [2-{[Acetyl-(3,4-bis-heptyloxy-benzoyl)-amino]-methyl}-1-methyl-pyridinium; iodide], which IC50 is on record?
**A.** The IC50 was 3.7 µM.

**Q.** For `CCCCCCCCCCCCCCOc1ccc(C(=O)N(Cc2cccc[n+]2C)C(C)=O)cc1OCCCCCCCCCCCCCC` [2-{[Acetyl-(3,4-bis-tetradecyloxy-benzoyl)-amino]-methyl}-1-methyl-pyridinium; iodide], which IC50 is on record?
**A.** The IC50 was over 10 µM.

**Q.** With `CCCCCCCCCCCCCCOc1ccc(C(=O)N(Cc2cccc[n+]2CC)C(C)=O)cc1OC` [2-{[Acetyl-(3-methoxy-4-tetradecyloxy-benzoyl)-amino]-methyl}-1-ethyl-pyridinium; iodide] as the compound, how does the IC50 read?
**A.** Its IC50 is 0.16 µM.

**Q.** Which IC50 does the source give for `CCCCCCCCCCCCCCOc1ccc(C(=O)N(Cc2cccc[n+]2C)C(C)=O)cc1OC` [2-{[Acetyl-(3-methoxy-4-tetradecyloxy-benzoyl)-amino]-methyl}-1-methyl-pyridinium; iodide] here?
**A.** The IC50 was 0.064 µM.

**Q.** `CCCCCCCCCCOc1ccc(C(=O)N(Cc2cccc[n+]2C)C(C)=O)cc1C(C)(C)C` [2-{[Acetyl-(3-tert-butyl-4-decyloxy-benzoyl)-amino]-methyl}-1-methyl-pyridinium; iodide] was tested. Which IC50 did it give?
**A.** The IC50 was 10 µM.

**Q.** For `CCCCCCCCCCCCCCCCCCNC(=O)Oc1ccc(C(=O)N(Cc2cccc[n+]2C)C(C)=O)cc1C(C)(C)C` [2-{[Acetyl-(3-tert-butyl-4-octadecylcarbamoyloxy-benzoyl)-amino]-methyl}-1-methyl-pyridinium; iodide], which IC50 is on record?
**A.** The IC50 was over 10 µM.

**Q.** `CCCCCCCCCCCCCCOc1ccc(C(=O)N(Cc2cccc[n+]2C)C(C)=O)cc1C(C)(C)C` [2-{[Acetyl-(3-tert-butyl-4-tetradecyloxy-benzoyl)-amino]-methyl}-1-methyl-pyridinium; iodide] was tested. Which IC50 did it give?
**A.** Its IC50 is 0.022 µM.

**Q.** For `CCCCCCCCCCCCCCOc1cc(C(=O)N(Cc2cccc[n+]2C)C(C)=O)ccc1OC` [2-{[Acetyl-(4-methoxy-3-tetradecyloxy-benzoyl)-amino]-methyl}-1-methyl-pyridinium; iodide], which IC50 is on record?
**A.** The IC50 was 160 µM.

**Q.** `CCCCCCCCCCCCCCOc1ccc(C(=O)N(Cc2cccc[n+]2Cc2ccccc2)C(C)=O)cc1` [2-{[Acetyl-(4-tetradecyloxy-benzoyl)-amino]-methyl}-1-benzyl-pyridinium; bromide] was tested. Which IC50 did it give?
**A.** Its IC50 is 330 µM.

**Q.** `CCCCCCCCCCCCCCOc1ccc(C(=O)N(Cc2cccc[n+]2C)C(C)=O)cc1` [2-{[Acetyl-(4-tetradecyloxy-benzoyl)-amino]-methyl}-1-methyl-pyridinium; iodide] was tested. Which IC50 did it give?
**A.** Its IC50 is 0.95 µM.

**Q.** `CCCCCCCCCCCCCCOc1ccc(CN(Cc2cccc[n+]2CC)C(C)=O)cc1` [2-{[Acetyl-(4-tetradecyloxy-benzyl)-amino]-methyl}-1-ethyl-pyridinium; iodide] was tested. Which IC50 did it give?
**A.** The IC50 was 8.3 µM.

**Q.** `CCCCCCCCCCCCCCOc1ccc(COC(=O)N(Cc2cccc[n+]2C)C(C)=O)cc1` [2-{[Acetyl-(4-tetradecyloxy-benzyloxycarbonyl)-amino]-methyl}-1-methyl-pyridinium; iodide] was tested. Which IC50 did it give?
**A.** The IC50 was over 10 µM.

**Q.** For `CCCCCCCCCCCCCCOc1ccc(C(=O)NC(=O)c2ccc[n+](CCC)c2)cc1OC` [3-(3-Methoxy-4-tetradecyloxy-benzoylaminocarbonyl)-1-propyl-pyridinium; iodide], which IC50 is on record?
**A.** Its IC50 is over 10 µM.

**Q.** For `CCCCCCCCCCCCCCOc1ccc(C(=O)N(Cc2ccc[n+](C)c2)C(C)=O)cc1C(C)(C)C` [3-{[Acetyl-(3-tert-butyl-4-tetradecyloxy-benzoyl)-amino]-methyl}-1-methyl-pyridinium; iodide], which IC50 is on record?
**A.** Its IC50 is 20 µM.

**Q.** `CCCCCCCCCCCCCCOc1ccc(C(=O)N(Cc2ccc[n+](C)c2)C(C)=O)cc1` [3-{[Acetyl-(4-tetradecyloxy-benzoyl)-amino]-methyl}-1-methyl-pyridinium; iodide] was tested. Which IC50 did it give?
**A.** The IC50 was 6.8 µM.

**Q.** With `CCCCCCCCCCCCCCOc1ccc(CN(Cc2ccc[n+](C)c2)C(C)=O)cc1` [3-{[Acetyl-(4-tetradecyloxy-benzyl)-amino]-methyl}-1-methyl-pyridinium; iodide] as the compound, how does the IC50 read?
**A.** Its IC50 is over 10 µM.

**Q.** How did the IC50 turn out when `CCCCCCCCCCCCCCOc1ccc(CN(Cc2cc[n+](C)cc2)C(C)=O)cc1` [4-{[Acetyl-(4-tetradecyloxy-benzyl)-amino]-methyl}-1-methyl-pyridinium; iodide] was run?
**A.** The IC50 was 1 µM.

**Q.** With `CCCCCCCCCCCCCCOc1ccc(C(=O)N(Cc2cccc[n+]2[O-])C(C)=O)cc1C(C)(C)C` [N-Acetyl-3-tert-butyl-N-(1-oxy-pyridin-2-ylmethyl)-4-tetradecyloxy-benzamide] as the compound, how does the IC50 read?
**A.** The IC50 was over 10 µM.

**Q.** Which IC50 does the source give for `CCCCCCCCCCCCCCOc1ccc(CNC(=O)c2cccc[n+]2CC)cc1` [Trifluoro-methanesulfonate1-ethyl-2-(4-tetradecyloxy-benzylcarbamoyl)-pyridinium;] here?
**A.** The IC50 was over 10 µM.

**Q.** For `CCCCCCCCCCCCCCOc1ccc(COC(=O)NCc2cccc[n+]2CC)cc1` [Trifluoro-methanesulfonate1-ethyl-2-[(4-tetradecyloxy-benzyloxycarbonylamino)-methyl]-pyridinium;], which IC50 is on record?
**A.** Its IC50 is over 10 µM.

**Q.** `CCCCCCCCCCCCCCOc1ccc(C(=O)N(Cc2cccc[n+]2CCC)C(C)=O)cc1OC` [Trifluoro-methanesulfonate2-{[acetyl-(3-methoxy-4-tetradecyloxy-benzoyl)-amino]-methyl}-1-propyl-pyridinium;] was tested. Which IC50 did it give?
**A.** The IC50 was 0.1 µM.
